Here are results for three compounds from publication PMC6222357, “Liquid Chromatography-Tandem Mass Spectrometry Simultaneous Determination and Pharmacokinetic Study of Fourteen Alkaloid Components in Dog Plasma after Oral Administration of Corydalis bungeana Turcz Extract” (Molecules : A Journal of Synthetic Chemistry and Natural …, 2018).

Data set [1] is described as follows: Stability of the analytes in beagle plasma QC samples under different storage conditions. The data set is classed as physicochemical, beagle dog. To be noted: n = 6; for Stability (% RE) Long-Term: 2 weeks at −80 °C; for Stability (% RE) Short-Term: 4 h at ambient temperature; for Stability (% RE) Freeze-Thaw: three freeze (−80 °C)-thaw cycles; for Stability (% RE) Post-Preparative: 12 h after sample preparation at 4 °C. How it is done:
As illustrated in Table 4. The stability of QC samples at three evaluated concentrations contained low, medium and high under different stored conditions was assessed on the basis of peak areas in comparison with freshly prepared QC sample.
(§1) The stability of the fourteen analytes in beagle dogs investigated by analyzing QC samples of each analyte at three QC levels (LQC, MQC and HQC) and each level contained six replicates. The short-term stability was assessed during storage for 4 h at ambient temperature. The long-term stability was determined after the QC samples had been stored for 2 weeks at −80 °C. The freeze-thaw stability was determined after three freeze at −80 °C and thaw cycles. and post-preparative stability was during storage for 12 h after sample preparation at 4 °C. The room temperature stability for stock solution was determined after storing the sample at 25 °C for 24 h. A series of concentrations of stability testing QC samples was gained by the calibration curve which was established from freshly prepared standard samples.

A short description of data set [2]: Room temperature stability of stock solution. The data set is classed as physicochemical. To be noted: 25 °C for 24 h, n = 6. How it is done:
as §1

Data set [3] in a line: Pharmacokinetic study in beagle dogs after oral administration of C. bungeana extract (UHPLC-MS/MS of plasma). Conditions: for AUC(0-inf) / AUC(0-t) / Cmax / Tmax / half-life: male, beagle, dog, plasma, po, 0.12 g/kg.
Description: The developed UHPLC-MS/MS method was employed to determine the pharmacokinetics of the fourteen components in C. bungeana after a single oral administration of 0.12 g/kg (equivalent to 1180.8 µg/kg A, 100.8 µg/kg B, 172.8 µg/kg C, 194.4 µg/kg D, 147.6 µg/kg E, 291.6 µg/kg F, 7.2 µg/kg G, 64.8 µg/kg H, 10.8 µg/kg I, 435.6 µg/kg J, 7.2 µg/kg K, 2851.2 µg/kg L, 694.8 µg/kg M, 928.8µg/kg N) to six beagle dogs. […] According to the Meeh-Rubn method, we established a final oral dosage of 0.12 g/kg in dogs. The plasma concentrations of the fourteen components at each time point were detected and the data gained from six beagle dogs were averaged.
Before the experiment, the beagle dogs were fasted for 12 h but given water during the research period. Blood (300 µL) was collected from the forelimb vein plexus at a few specific time points (0.083, 0.25, 0.5, 0.75 and 1, 2, 3, 4, 6, 8, 12, 24 h) after the oral administration of the extract of C. bungeana (0.12 g/kg). After centrifugation at 13,000 rpm for 10 min, the plasma was collected immediately and maintained at −80 °C until sample analysis.
Using a liquid-liquid extraction method, 100 µL of methanol and 50 µL of IS (bifendate) were added to a beagle dog plasma sample (100 µL) followed by vortex for 30 s. Then 3 mL of aether was accurately added and the mixture was vortexed for 60 s. After this step, the samples were put into a centrifuge (XiangYi Technologies, Changsha, Hunan, China). The organic supernatant was pipetted into clean glass tubes individually after centrifugation 3800 rpm for 6 min. The upper organic layer was removed and evaporated to dryness at 40 °C under a stream of nitrogen. The residue was then redissolved with 100 µL of mobile phase (28% acetonitrile), vortexed for 30 s and filtered by a 0.22 µm membrane. A 10 µL aliquot of the solution was injected into the UHPLC-MS/MS system for analysis.
Concentrations of fourteen alkaloids in beagle dog blood were calculated employing the Excel program (Microsoft Corp., Redmond, WA, USA). Pharmacokinetic parameters were calculated using non-compartmental methods. The elimination rate constant (Ke) was calculated employing the linear regression of the terminal points in a semi-log plot of the plasma concentration against time. The elimination half-life (t1/2) was calculated using the formula. t1/2 = 0.693/Ke(1)
The area under the blood concentration versus time curve up to the last quantifiable time point (AUC0→t) was calculated by the linear trapezoidal rule. The area under the plasma concentration –time curve to time infinity (AUC0→∞) was calculated as follows: AUC0→∞ = AUC0→t + Ct/Ke(2)
The maximum observed blood concentration (Cmax) and the time to reach maximum observed blood concentration (Tmax) were obtained directly from the concentration-time curve.
Where [4] appears, read: beagle dog plasma, oral C. bungeana extract, post-dose.

With `CN1C(=O)c2c(ccc3c2OCO3)C2(C)C(O)Cc3cc4c(cc3C12)OCO4` (stereo not drawn) [8-oxocorynoline], in data set [1] (high QC in beagle plasma), the “Stability (% RE) Long-Term” value was 3.13 % RE, the “Stability (% RE) Short-Term” value is given as −2.89 % RE and the “Stability (% RE) Freeze-Thaw” value was −3.58 % RE. Moreover, the “Stability (% RE) Post-Preparative” value in data set [1] (high QC) stood at 10.60 % RE. In addition, in data set [1] (low QC in beagle plasma), the “Stability (% RE) Long-Term” value was 3.08 % RE, the “Stability (% RE) Short-Term” value is listed as 1.62 % RE and the “Stability (% RE) Freeze-Thaw” value came to 1.18 % RE. Further, the “Stability (% RE) Post-Preparative” value in data set [1] (low QC) is listed as 3.71 % RE. For the same compound, in data set [1] (medium QC in beagle plasma), the “Stability (% RE) Long-Term” value was determined as 5.35 % RE, the “Stability (% RE) Short-Term” value is −3.92 % RE and the “Stability (% RE) Freeze-Thaw” value amounted to 9.69 % RE. The “Stability (% RE) Post-Preparative” value in data set [1] (medium QC) is recorded as 10.01 % RE. Further, the “Stability (% RE) Room Temperature for Stock-Solution” value (“Stability (% RE) Room Temperature” below) in data set [2] (high QC level) was 2.30 % RE. In data set [2] (low QC level), the “Stability (% RE) Room Temperature” value was −4.08 % RE. The “Stability (% RE) Room Temperature” value in data set [2] (medium QC level) was 3.77 % RE. Further, in data set [3], the AUC(0-inf) stood at 284 ± 62.4 ng·h/mL, the AUC(0-t) turned out to be 260 ± 64.2 ng·h/mL, the concentration peaked (Cmax) at 94.5 ± 22.8 ng/mL and the Tmax came out at 0.92 ± 0.13 h. Besides, in data set [3], the half-life was 6.98 ± 1.76 h.
Take `CC(=O)O[C@H]1Cc2cc3c(cc2[C@H]2N(C)Cc4c(ccc5c4OCO5)[C@@]12C)OCO3` [Acetylcorynoline, acetylcorynoline]: in data set [1] (high QC in beagle plasma), the “Stability (% RE) Long-Term” value is given as 7.32 % RE, the “Stability (% RE) Short-Term” value is −4.81 % RE and the “Stability (% RE) Freeze-Thaw” value was −4.20 % RE. Further, in data set [1] (high QC), the “Stability (% RE) Post-Preparative” value was determined as 2.05 % RE. In addition, in data set [1] (low QC in beagle plasma), the “Stability (% RE) Long-Term” value was 8.62 % RE, the “Stability (% RE) Short-Term” value was 6.47 % RE and the “Stability (% RE) Freeze-Thaw” value came to 5.17 % RE. In addition, the “Stability (% RE) Post-Preparative” value in data set [1] (low QC) is 12.65 % RE. In data set [1] (medium QC in beagle plasma), the “Stability (% RE) Long-Term” value is reported as 7.56 % RE, the “Stability (% RE) Short-Term” value is 6.74 % RE and the “Stability (% RE) Freeze-Thaw” value is −3.75 % RE. For the same compound, the “Stability (% RE) Post-Preparative” value in data set [1] (medium QC) is recorded as −3.44 % RE. In data set [2] (high QC level), the “Stability (% RE) Room Temperature” value amounted to 3.69 % RE. In addition, in data set [2] (low QC level), the “Stability (% RE) Room Temperature” value was −1.83 % RE. The “Stability (% RE) Room Temperature” value in data set [2] (medium QC level) is recorded as 2.57 % RE. Moreover, in data set [3], the AUC(0-inf) stood at 244 ± 26.2 ng·h/mL, the AUC(0-t) was determined as 230 ± 18.6 ng·h/mL, the concentration peaked (Cmax) at 107 ± 4.63 ng/mL and the Tmax amounted to 0.58 ± 0.13 h. The half-life in data set [3] was 5.52 ± 0.93 h.
As for `COc1ccc2cc3[n+](cc2c1OC)CCc1cc2c(cc1-3)OCO2` [Berberine, berberine], in data set [1] (high QC in beagle plasma), the “Stability (% RE) Long-Term” value worked out at 7.00 % RE, the “Stability (% RE) Short-Term” value came out at 11.96 % RE and the “Stability (% RE) Freeze-Thaw” value turned out to be 7.71 % RE. Further, the “Stability (% RE) Post-Preparative” value in data set [1] (high QC) stood at 10.36 % RE. Also, in data set [1] (low QC in beagle plasma), the “Stability (% RE) Long-Term” value is reported as 7.75 % RE, the “Stability (% RE) Short-Term” value is 9.61 % RE and the “Stability (% RE) Freeze-Thaw” value is 12.57 % RE. Also, the “Stability (% RE) Post-Preparative” value in data set [1] (low QC) was determined as 11.84 % RE. In addition, in data set [1] (medium QC in beagle plasma), the “Stability (% RE) Long-Term” value came to 7.72 % RE, the “Stability (% RE) Short-Term” value is given as 7.42 % RE and the “Stability (% RE) Freeze-Thaw” value amounted to 11.60 % RE. Also, the “Stability (% RE) Post-Preparative” value in data set [1] (medium QC) is on record as 9.39 % RE. Also, the “Stability (% RE) Room Temperature” value in data set [2] (high QC level) is listed as −3.26 % RE. In addition, the “Stability (% RE) Room Temperature” value in data set [2] (low QC level) is 2.22 % RE. Besides, the “Stability (% RE) Room Temperature” value in data set [2] (medium QC level) was 4.08 % RE. Further, the “Shape of plasma concentration-time profile” value in data set [3] (beagle dog plasma, oral C. bungeana extract 0.12 g/kg) is “conspicuous bimodal phenomenon”. Further, in data set [3] (setting [4]), the “Time of first peak of plasma concentration-time profile” value is 0.5 to 1 h and the “Time of second peak of plasma concentration-time profile” value was 4 to 8 h. Also, in data set [3], the AUC(0-inf) was 3770 ± 139 ng·h/mL, the AUC(0-t) was 3690 ± 141 ng·h/mL, the highest level (Cmax) was 1370 ± 313 ng/mL and the Tmax amounted to 0.92 ± 0.13 h. The compound further had a half-life in data set [3] of 2.49 ± 0.14 h.

Usually AUC(0-inf) stands for total exposure, with the tail of the curve extrapolated. Low values mean less exposure, high ones more exposure. By AUC(0-t) is commonly meant the area under the concentration-time curve up to a stated or last time point. As usually defined, the Cmax is the maximum level reached in the sampled fluid or tissue. For orientation: Tmax means the time from dosing to the highest level. The half-life is how long it takes for the measured level to halve. Higher therefore signals slow decline.
